Measurements as given in patent US20220257633A1, “METHOD OF TREATING AGE-RELATED MACULAR DEGENERATION” (THE PROVOST, FELLOWS, FOUNDATION SCHOLARS, & THE O, priority 2021, published 2022).

Test system: CD45+CD66b−CD14+CD16+ monocytes
Experiment: Surface CD86 on monocytes by flow cytometry
Type: cell-based, human
Conditions: PBMCs treated with MCP-1 for 24 h; CD86 MFI
Procedure: PBMCs were labelled for the investigation of monocytes with the following fluorochrome-labelled antibodies: anti-CD16 (3G8) anti-CD86 (FM95) anti-CD45 (2D1); anti-CD66b (G10F5); CD14 (Tuk4); CD80 (2D10); (Biolegend or Miltenyi). Each staining well contained 4×10^5 cells; cells were stained with LIVE/DEAD Aqua (Molecular Probes) followed by staining for 20 min on ice, washed, and analyzed by flow cytometry immediately. Flow cytometry was carried out on a BD LSR Fortessa cell analyzer and analyzed using FlowJo software (Tree Star).

Substance: MCP-1: chemokine monocyte chemoattractant protein CCL2/MCP-1
- increase of CD86 membrane expression: ~1.4 fold
